Results on 14 compounds are retold here after US10513519B2, “Solid forms of (1S,4S)-4-(2-(((3S,4R)-3-fluorotetrahydro-2H-pyran-4-yl)amino)-8-((2,4,6-trichlorophenyl)amino)-9H-purin-9-yl)-1-methylcyclohexane-1-carboxamide and methods of their use” (Signal Pharmaceuticals, LLC, priority 2016, dated 2019).

Series [1] can be described thus: Dynamic vapor sorption (hygroscopicity). To be noted: for DVS wt gain: @ 95% RH, Compound 1 HCl salt forms; for hygroscopicity (in words): DVS; for water uptake: between 0 and 90% RH; for DVS water uptake: up to 90% RH, Compound 1 citrate salt polymorphs. Type of series: physicochemical. The procedure: Dynamic vapor sorption (DVS) was measured using DVS advantage (Surface Measurement Systems Ltd). The samples were tested under isotherm (25° C.) at a targeted RH of 0 to 95% full cycle in step mode. For an isotherm test, the chamber temperature was maintained by a water bath at constant 25.0±1.0° C. The relative humidity in the sample chamber was generated by combining different flows of wet and dry nitrogen with variable flow rates. The analysis was performed in 10% RH increments. Sampling rate was 1 sec save data rate is 20 sec. The dm/dt (%) value was set at 0.001 with a dm/dt window of 5 min., a minimum stability duration time of 10 min, and a maximum stage time of 180 min. The sample's equilibrium weight corresponding to each RH was recorded. A sorption isotherm was obtained by plotting equilibrium moisture content versus RH.
Hygroscopicity was determined on a Surface Measurement Systems DVS. A sample size of 5-20 mg was loaded into the DVS instrument sample pan and the sample was analyzed on a DVS automated sorption analyzer at room temperature. The relative humidity was increased from 0% to 90% RH at 10% RH step, then decreased in a similar manner to accomplish a full adsorption/desorption cycle.

Series [2] is described as follows: Approximate solubility in various solvents at room temperature. Type of series: physicochemical. The protocol: The resulting mixture was agitated for about 1 day at room temperature. If all of the solids appeared to be dissolved by visual inspection, the estimated solubility was calculated based on the total volume of solvent used to give a complete solution. If solids were present, a known volume of filtrate was evaporated to dryness and the weight of the residue was measured to estimate the solubility.
The resulting mixture was agitated for 1 day at room temperature. If all of the solids appeared to be dissolved by visual inspection, the estimated solubility was calculated based on the total volume of solvent used to give a complete solution. If solids were present, a known volume of filtrate was evaporated to dryness and the weight of the residue was measured to estimate the solubility.

The nature of series [3]: Form conversion / form transfer experiments (humidity, drying, competitive slurries). It counts as physicochemical. From the text:
The thermodynamic relationship between the two forms was explored through form conversion experiments (Table 31).

Series [4] in a line: Compression test (2000-psi pressure). Type of series: physicochemical. As to conditions: 2000-psi pressure for about 1 minute.
Series [5] can be described thus: Solubility in biorelevant media (FeSSIF, FaSSIF, FaSSGF, FeSSGF).
The nature of series [6]: Solubility of salt forms and free base in water, SGF, SIF and 0.5% HPMC in […] Tween 80.
The nature of series [7]: Solid state stability of salt forms and free base. Type of series: physicochemical.
For series [8], the system named is TEAD reporter (8×GTIIC-luciferase) in W138 VA13 cells. The experiment in a line: TEAD reporter assay. It counts as cell-based. As to conditions: 24 or 72 hours. The procedure:
TEAD reporter activity was analyzed using W138 VA13 cells stably expressing a YAP/TAZ responsive synthetic promoter driving luciferase expression (8×GTIIC-luciferase). 10,000 cells per well were seeded on a white-walled 96-well plate and left overnight. After 16-20 hours, cells were treated with compound and TEAD reporter activity was measured 24 or 72 hours later using Bright Glo luciferase assay (Promega) according to the manufacturer's instructions. This assay was performed 3 times for Compound 1 and twice for Trametinib.
For orientation: Reporter assays use an easily measured gene product as a stand-in for the process of interest.

Series [9] can be described thus: Approximate solubility of HCl salt starting material in selected organic solvents. It counts as physicochemical. As to conditions: room temperature. The procedure: Solubility of the starting mater in selected organic solvents was determined by mixing with selected solvents at room temperature.

For `CC1(C(N)=O)CCC(n2c(Nc3c(Cl)cc(Cl)cc3Cl)nc3cnc(NC4CCOCC4F)nc32)CC1.Cl.O` (stereo not drawn) [Form 7], the DVS wt gain in series [1] is ~4.5% wt.
Take `CC1(C(N)=O)CCC(n2c(Nc3c(Cl)cc(Cl)cc3Cl)nc3cnc(NC4CCOCC4F)nc32)CC1.Cl.O` (stereo not drawn) [Form 8]: in [1], the DVS wt gain is listed as ~2% wt.
What is called solubility is the dissolved amount per volume that the medium holds. For `C[C@]1(C(N)=O)CC[C@@H](n2c(Nc3c(Cl)cc(Cl)cc3Cl)nc3cnc(N[C@@H]4CCOC[C@H]4F)nc32)CC1` [Form A], in series [1] (between 10 and 30% RH), the weight change result is “over 3%”. In series [1] (between 30-90% RH), the additional water uptake entry is reported as “approximately 1.4 wt %”. Besides, the “DVS water uptake up to 90 % RH” value in series [1] (listed as A) is recorded as 4.7 wt % water. Besides, the solubility at 1 day was > 50 mg/mL in series [2] (1,4-dioxane, organic solvent or mixture, thermodynamic from solid, 1,4-dioxane); > 50 mg/mL in series [2] (2-MeTHF, organic solvent or mixture, thermodynamic from solid); > 50 mg/mL in [2] (DCM, organic solvent or mixture, thermodynamic from solid); > 100 mg/mL in [2] (EtOAc, organic solvent or mixture, thermodynamic from solid); > 20 mg/mL in series [2] (EtOH, organic solvent or mixture, thermodynamic from solid); > 3 mg/mL in series [2] (EtOH/water (1:1), aqueous with cosolvent or surfactant or cyclodextrin, thermodynamic from solid, EtOH/water (1:1)). Besides, the solubility at 1 day in series [2] (IPA, organic solvent or mixture, thermodynamic from solid) was > 10 mg/mL; in series [2] (IPAc, organic solvent or mixture, thermodynamic from solid), > 50 mg/mL; in series [2] (MEK, organic solvent or mixture, thermodynamic from solid), > 50 mg/mL; in series [2] (MIBK, organic solvent or mixture, thermodynamic from solid) it was > 50 mg/mL; in [2] (MTBE, organic solvent or mixture, thermodynamic from solid), > 20 mg/mL; in series [2] (MeCN, organic solvent or mixture, thermodynamic from solid), > 3 mg/mL. Further, the solubility at 1 day is > 50 mg/mL in series [2] (MeCN/water (1:1), aqueous with cosolvent or surfactant or cyclodextrin, thermodynamic from solid, MeCN/water (1:1)); > 100 mg/mL in [2] (MeOAc, organic solvent or mixture, thermodynamic from solid); > 50 mg/mL in series [2] (MeOH, organic solvent or mixture, thermodynamic from solid); > 100 mg/mL in series [2] (THF, organic solvent or mixture, thermodynamic from solid); > 50 mg/mL in series [2] (THF/water (1:1), aqueous with cosolvent or surfactant or cyclodextrin, thermodynamic from solid, THF/water (1:1)); > 100 mg/mL in series [2] (acetone, organic solvent or mixture, thermodynamic from solid). For the same compound, the solubility at 1 day was < 1 mg/mL in series [2] (heptane, organic solvent or mixture, thermodynamic from solid); > 20 mg/mL in series [2] (n-BuOH, organic solvent or mixture, thermodynamic from solid); > 10 mg/mL in series [2] (toluene, organic solvent or mixture, thermodynamic from solid); < 1 mg/mL in series [2] (water, thermodynamic from solid). In addition, in [3] (no solvent, RT and 0% RH 6 days), the “Resulting Form” value is “B + A”.
Turning to `CC1(C(N)=O)CCC(n2c(Nc3c(Cl)cc(Cl)cc3Cl)nc3cnc(NC4CCOCC4F)nc32)CC1.O=C(O)CC(O)(CC(=O)O)C(=O)O` (stereo not drawn) [Form Y], the “solid form after compression” value in series [4] is reported as “still Form Y”. Besides, in series [1], the “hygroscopicity (in words)” value is “slightly hygroscopic” and the water uptake entry is “about 2.1 % w/w”.
As to `CC1(C(N)=O)CCC(n2c(Nc3c(Cl)cc(Cl)cc3Cl)nc3cnc(NC4CCOCC4F)nc32)CC1.O=C(O)CC(O)(CC(=O)O)C(=O)O` (stereo not drawn) [Form Z], in series [4], the “solid form after compression” value is reported as “still Form Z”. Besides, in series [1], the “hygroscopicity (in words)” value is “slightly hygroscopic” and the water uptake result is reported as “about 1.6 % w/w”.
As to `CC1(C(N)=O)CCC(n2c(Nc3c(Cl)cc(Cl)cc3Cl)nc3cnc(NC4CCOCC4F)nc32)CC1.Cl.O` (stereo not drawn) [HCl Salt], the pH worked out at 1.82 in series [5] (FaSSGF), 6.12 in series [5] (FaSSIF), 5.66 in series [5] (FeSSGF) and 4.85 in [5] (FeSSIF). Further, in series [1] (0-95% RH), the “hygroscopicity with respect to monohydrate” value was < 1.0%. Moreover, the “hygroscopicity (in words)” value in series [1] is “low hygroscopicity”. In addition, the remaining water released in series [1] (from 5% RH to dry) was ~2.8 % wt. In addition, in series [1] (from 25 to 95% RH), the additional moisture sorption is ~1.7%. For the same compound, in [1] (from 95 down to 5% RH), the “loss of water content during desorption cycle” value was ~1.5%. The pH at final came out at 3.06 in [6] (0.5% HPMC/[…] Tween80), 1.17 in series [6] (SGF), 7.22 in [6] (SIF) and 3.65 in [6] (Water). In addition, the “solid state stability (in words)” value in [7] is “chemically and physically stable in solid state”. Moreover, the “Chemical (40° C./75% RH) RRT = 2.2” value in series [7] (40° C./75% RH) stood at 0.02%. In addition, the “Physical (40° C./75% RH)” value in [7] (40° C./75% RH) is “Stable”. The “Chemical (60° C.) RRT2.2” value in [7] (60° C.) was 0.05%. In [7] (60° C.), the “Physical (60° C.)” value is listed as “Stable”.
For the compound `CC(=O)Nc1cccc(-n2c(=O)n(C3CC3)c(=O)c3c(Nc4ccc(I)cc4F)n(C)c(=O)c(C)c32)c1` [Trametinib, reference compound], the “inhibition of TEAD reporter activity” value in series [8] is “did not inhibit”.
Take `CC1(C(N)=O)CCC(n2c(Nc3c(Cl)cc(Cl)cc3Cl)nc3cnc(NC4CCOCC4F)nc32)CC1.O=C(O)CC(O)(CC(=O)O)C(=O)O` (stereo not drawn) [Y + Z]: the “Resulting Form(s)” value in series [3] (Slurry in EtOAc, RT, 5 days) is “Y + Z”; in [3] (Slurry in EtOAc, RT, 10 days) it was “Y + Z”; in [3] (Slurry in Toluene, 50° C., 4 days) it was “Z + Y”; in [3] (Slurry in Toluene, RT, 5 days), “Z + Y”; in series [3] (Slurry in Toluene, RT, 10 days), “Z + Y”.
Turning to `CC1(C(N)=O)CCC(n2c(Nc3c(Cl)cc(Cl)cc3Cl)nc3cnc(NC4CCOCC4F)nc32)CC1.O=C(O)CC(O)(CC(=O)O)C(=O)O` (stereo not drawn) [Y], the DVS water uptake in [1] was ~2.1 wt % water.
Still for that read-out and setting: then `CC1(C(N)=O)CCC(n2c(Nc3c(Cl)cc(Cl)cc3Cl)nc3cnc(NC4CCOCC4F)nc32)CC1.O=C(O)CC(O)(CC(=O)O)C(=O)O` (stereo not drawn) [Z], with ~1.6 wt % water.
Consider `C[C@]1(C(N)=O)CC[C@@H](n2c(Nc3c(Cl)cc(Cl)cc3Cl)nc3cnc(N[C@@H]4CCOC[C@H]4F)nc32)CC1` [amorphous], for which the reversible weight change entry in series [1] (between 10 and 50% RH) is recorded as “about 3.5%”. Further, in series [1], the “DVS water uptake up to 90 % RH” value is reported as 6.9 wt % water.
As for `CC1(C(N)=O)CCC(n2c(Nc3c(Cl)cc(Cl)cc3Cl)nc3cnc(NC4CCOCC4F)nc32)CC1.Cl` (stereo not drawn) [anhydrate/amorphous starting material], the “Approximate Solubility” value in [9] (2-MeTHF) was “S < 0.9 mg/mL”; in [9] (DCM), “S < 1.6 mg/mL”; in [9] (DMAc) it was “S > 18 mg/mL”; in [9] (DMSO), “S > 22 mg/mL”; in [9] (EtOAc), “S < 1.5 mg/mL”; in series [9] (EtOH), “S > 28 mg/mL”. For the same compound, the “Approximate Solubility” value in series [9] (H2O) is recorded as “S < 1.0 mg/mL”; in series [9] (Heptane) it was “S < 1.7 mg/mL”; in series [9] (IPAc) it was “S < 1.3 mg/mL”; in series [9] (MIBK) it was “S < 1.5 mg/mL”; in series [9] (MTBE), “S < 1.0 mg/mL”; in [9] (MeOAc), “S < 0.9 mg/mL”. The “Approximate Solubility” value in series [9] (MeOH) is “S > 31 mg/mL”; in series [9] (NMP), “S > 24 mg/mL”; in series [9] (Toluene) it was “S < 1.4 mg/mL”.
Turning to `CC1(C(N)=O)CCC(n2c(Nc3c(Cl)cc(Cl)cc3Cl)nc3cnc(NC4CCOCC4F)nc32)CC1.Cl` (stereo not drawn) [starting material HCl Salt Form], in series [1], the DVS wt gain was ~3.6% wt and the “hygroscopicity (in words)” value is “moderately hygroscopic”. The compound also came in with a mass change in series [1] (from 0% RH to 95% RH at 25° C.) of 3.6 wt %.
As for Citrate, the “hygroscopicity (in words)” value in series [1] is given as “low hygroscopicity”.
